Reference: ChEMBL document CHEMBL4196088, “Induction of cell killing and autophagy by amphiphilic pyrrolidine derivatives on human pancreatic cancer cells” (Eur J Med Chem, 2018)
Calls of active or inactive are those of the source. No cut-off for these calls is given here.

Key:
PK9 [1] = assay: Induction of apoptosis in human PK9 cells assessed as accumulation at sub-G0/G1 phase at 20 uM after 24 hrs by propidium iodide staining based flow cytometry (reference value: 2.2%); assay type: functional
Fibroblast [2] = assay: Induction of apoptosis in human primary fibroblasts assessed as accumulation at sub-G0/G1 phase at 10 uM after 24 hrs by propidium iodide staining based flow cytometry (reference value: 4.8%); assay type: cell-based
PANC-1 [3] = assay: Induction of apoptosis in human PANC1 cells assessed as accumulation at sub-G0/G1 phase at 10 uM after 72 hrs by propidium iodide staining based flow cytometry (reference value: 1.6 to 3.2%); assay type: functional
[4] = Induction of apoptosis in HPNE cells assessed as accumulation at sub-G0/G1 phase at 20 uM after 24 hrs by propidium iodide staining based flow cytometry (reference value: 0.6%); assay type: cell-based; details: human
[5] = Induction of apoptosis in HPNE cells assessed as accumulation at sub-G0/G1 phase at 10 uM after 72 hrs by propidium iodide staining based flow cytometry (reference value: 6.6%); assay type: cell-based; details: human
Fibroblast [6] = assay: Induction of apoptosis in human primary fibroblasts assessed as accumulation at sub-G0/G1 phase at 10 uM after 48 hrs by propidium iodide staining based flow cytometry (reference value: 6.1%); assay type: cell-based
PANC-1 [7] = assay: Induction of apoptosis in human PANC1 cells assessed as accumulation at sub-G0/G1 phase at 20 uM after 48 hrs by propidium iodide staining based flow cytometry (reference value: 0.2 to 2.9%); assay type: functional
[8] = Induction of apoptosis in HPNE cells assessed as accumulation at sub-G0/G1 phase at 20 uM after 48 hrs by propidium iodide staining based flow cytometry (reference value: 0.7%); assay type: cell-based; details: human
BXPC-3 [9] = assay: Induction of apoptosis in human BxPC3 cells assessed as accumulation at sub-G0/G1 phase at 20 uM after 72 hrs by propidium iodide staining based flow cytometry (reference value: 3.4%); assay type: functional
BXPC-3 [10] = assay: Induction of apoptosis in human BxPC3 cells assessed as accumulation at sub-G0/G1 phase at 20 uM after 24 hrs by propidium iodide staining based flow cytometry (reference value: 2.3%); assay type: functional
[11] = Induction of apoptosis in HPNE cells assessed as accumulation at sub-G0/G1 phase at 10 uM after 48 hrs by propidium iodide staining based flow cytometry (reference value: 0.7%); assay type: cell-based; details: human
PK9 [12] = assay: Induction of apoptosis in human PK9 cells assessed as accumulation at sub-G0/G1 phase at 10 uM after 72 hrs by propidium iodide staining based flow cytometry (reference value: 4%); assay type: functional
PANC-1 [13] = assay: Induction of apoptosis in human PANC1 cells assessed as accumulation at sub-G0/G1 phase at 10 uM after 24 hrs by propidium iodide staining based flow cytometry (reference value: 0.6 to 0.7%); assay type: functional
PANC-1 [14] = assay: Induction of apoptosis in human PANC1 cells assessed as accumulation at sub-G0/G1 phase at 20 uM after 72 hrs by propidium iodide staining based flow cytometry (reference value: 1.6 to 3.2%); assay type: functional
BXPC-3 [15] = assay: Induction of apoptosis in human BxPC3 cells assessed as accumulation at sub-G0/G1 phase at 10 uM after 48 hrs by propidium iodide staining based flow cytometry (reference value: 2.8%); assay type: functional
BXPC-3 [16] = assay: Induction of apoptosis in human BxPC3 cells harboring pSFFV-Bcl-XL assessed as accumulation at sub-G0/G1 phase at 10 uM after 48 hrs by propidium iodide staining based flow cytometry (reference value: 1.9%); assay type: functional
[17] = Induction of apoptosis in HPNE cells assessed as accumulation at sub-G0/G1 phase at 10 uM after 24 hrs by propidium iodide staining based flow cytometry (reference value: 0.6%); assay type: cell-based; details: human
PK9 [18] = assay: Induction of apoptosis in human PK9 cells assessed as accumulation at sub-G0/G1 phase at 10 uM after 24 hrs by propidium iodide staining based flow cytometry (reference value: 2.2%); assay type: functional
PK9 [19] = assay: Induction of apoptosis in human PK9 cells assessed as accumulation at sub-G0/G1 phase at 10 uM after 48 hrs by propidium iodide staining based flow cytometry (reference value: 3.8%); assay type: functional
BXPC-3 [20] = assay: Induction of apoptosis in human BxPC3 cells assessed as accumulation at sub-G0/G1 phase at 20 uM after 48 hrs by propidium iodide staining based flow cytometry (reference value: 2.8%); assay type: functional
PK9 [21] = assay: Induction of apoptosis in human PK9 cells assessed as accumulation at sub-G0/G1 phase at 20 uM after 48 hrs by propidium iodide staining based flow cytometry (reference value: 3.8%); assay type: functional
BXPC-3 [22] = assay: Induction of apoptosis in human BxPC3 cells harboring pSFFV-Bcl-XL assessed as accumulation at sub-G0/G1 phase at 10 uM after 72 hrs by propidium iodide staining based flow cytometry (reference value: 2%); assay type: functional
BXPC-3 [23] = assay: Induction of apoptosis in human BxPC3 cells assessed as accumulation at sub-G0/G1 phase harboring pSFFV-Bcl-XL at 20 uM after 24 hrs by propidium iodide staining based flow cytometry (reference value: 1.2%); assay type: functional
PANC-1 [24] = assay: Induction of apoptosis in human PANC1 cells assessed as accumulation at sub-G0/G1 phase at 20 uM after 24 hrs by propidium iodide staining based flow cytometry (reference value: 0.6 to 0.7%); assay type: functional
BXPC-3 [25] = assay: Induction of apoptosis in human BxPC3 cells assessed as accumulation at sub-G0/G1 phase at 10 uM after 24 hrs by propidium iodide staining based flow cytometry (reference value: 1.8%); assay type: functional
BXPC-3 [26] = assay: Induction of apoptosis in human BxPC3 cells assessed as accumulation at sub-G0/G1 phase harboring pSFFV-Bcl-XL at 20 uM after 72 hrs by propidium iodide staining based flow cytometry (reference value: 1.3%); assay type: functional
BXPC-3 [27] = assay: Induction of apoptosis in human BxPC3 cells assessed as accumulation at sub-G0/G1 phase harboring pSFFV-Bcl-XL at 20 uM after 48 hrs by propidium iodide staining based flow cytometry (reference value: 1.3%); assay type: functional
BXPC-3 [28] = assay: Induction of apoptosis in human BxPC3 cells harboring pSFFV-Bcl-XL assessed as accumulation at sub-G0/G1 phase at 10 uM after 24 hrs by propidium iodide staining based flow cytometry (reference value: 1.5%); assay type: functional
Fibroblast [29] = assay: Induction of apoptosis in human primary fibroblasts assessed as accumulation at sub-G0/G1 phase at 10 uM after 72 hrs by propidium iodide staining based flow cytometry (reference value: 6.7%); assay type: cell-based
PANC-1 [30] = assay: Induction of apoptosis in human PANC1 cells assessed as accumulation at sub-G0/G1 phase at 10 uM after 48 hrs by propidium iodide staining based flow cytometry (reference value: 0.2 to 2.9%); assay type: functional
BXPC-3 [31] = assay: Induction of apoptosis in human BxPC3 cells assessed as accumulation at sub-G0/G1 phase at 10 uM after 72 hrs by propidium iodide staining based flow cytometry (reference value: 3.4%); assay type: functional
PK9 [32] = assay: Induction of apoptosis in human PK9 cells assessed as accumulation at sub-G0/G1 phase at 20 uM after 72 hrs by propidium iodide staining based flow cytometry (reference value: 4%); assay type: functional
[33] = Induction of apoptosis in HPNE cells assessed as accumulation at sub-G0/G1 phase at 20 uM after 72 hrs by propidium iodide staining based flow cytometry (reference value: 6.6%); assay type: cell-based; details: human
PANC-1 [34] = assay: Growth inhibition of human PANC1 cells at 20 uM after 72 hrs; assay type: functional, cell-based
PK9 [35] = assay: Growth inhibition of human PK9 cells at 20 uM after 72 hrs by MTT assay; assay type: functional, cell-based
SK-BR-3 = assay: Growth inhibition of human SKBR3 cells at 20 uM after 72 hrs; assay type: functional, cell-based
Fibroblast [36] = assay: Induction of apoptosis in human primary fibroblasts at 20 uM after 48 hrs by propidium iodide staining based flow cytometry (reference value: 6.1%); assay type: cell-based
HeLa = assay: Growth inhibition of human HeLa cells after 72 hrs; assay type: functional, cell-based
Fibroblast [37] = assay: Induction of apoptosis in human primary fibroblasts at 20 uM after 72 hrs by propidium iodide staining based flow cytometry (reference value: 6.7%); assay type: cell-based
Fibroblast [38] = assay: Induction of apoptosis in human primary fibroblasts at 20 uM after 24 hrs by propidium iodide staining based flow cytometry (reference value: 4.8%); assay type: cell-based

SMILES	Activity (PK9 [1])	Activity (Fibroblast [2])	Activity (PANC-1 [3])	Activity [4]	Activity [5]	Activity (Fibroblast [6])	Activity (PANC-1 [7])	Activity [8]	Activity [11]	Activity (PK9 [12])	Activity (PANC-1 [13])	Activity (PANC-1 [14])	Activity [17]	Activity (PK9 [18])	Activity (PK9 [19])	Activity (PK9 [21])	Activity (PANC-1 [24])	growth inhibition (GI) (PANC-1 [34])	growth inhibition (GI) (PK9 [35])	growth inhibition (GI) (SK-BR-3)	further results
CCCCCCCC/C=C\CCCCCCCCOCC[C@H]1NC[C@H](O)[C@@H]1O	8.3%	8.7%	9.7%	63.8%	62.8%	8.2%	13.6%	67.5%	22.2%	2.7%	4.7%	22.6%	12.1%	2.8%	3.4%	30.5%	5%	–	–	–	Activity (BXPC-3 [9]): 46.2%; Activity (BXPC-3 [10]): 17.7%; Activity (BXPC-3 [15]): 11.5%; Activity (BXPC-3 [16]): 3.1%; Activity (BXPC-3 [20]): 32.5%; Activity (BXPC-3 [22]): 3.1%; Activity (BXPC-3 [23]): 2.3%; Activity (BXPC-3 [25]): 4.6%; Activity (BXPC-3 [26]): 4.1%; Activity (BXPC-3 [27]): 3.4%; Activity (BXPC-3 [28]): 3%; Activity (Fibroblast [29]): 9.2%; Activity (PANC-1 [30]): 3.9%; Activity (BXPC-3 [31]): 14.6%; Activity (PK9 [32]): 37.7%; Activity [33]: 73%
CCCCCCCC/C=C\CCCCCCCCOC[C@@H]1[C@@H](O)[C@@H](O)CN1C(C)=O	–	–	–	–	–	–	–	–	–	–	–	–	–	–	–	–	–	inactive	inactive	Active	–
Cl.O[C@H]1CN[C@H](COCCCCCCCC/C=C/c2ccc(Oc3ccccc3)cc2)C1	30.1%	9.1%	28.2%	66.6%	85.9%	6.5%	33.7%	87.5%	72.9%	6.9%	12.9%	43.8%	42.8%	3.5%	7.4%	46.5%	14.7%	–	–	–	Activity (Fibroblast [36]): 74.8%; IC50 (HeLa): 3.9 µM; Activity (Fibroblast [37]): 72.7%; Activity (Fibroblast [29]): 8.1%; Activity (PANC-1 [30]): 21.8%; Activity (Fibroblast [38]): 40.1%; Activity (PK9 [32]): 48.7%; Activity [33]: 94.3%
Cl.O[C@H]1CN[C@H](COCCCCCC/C=C/c2ccc(-c3ccccc3)cc2)C1	26%	14.6%	47.9%	69.6%	93.6%	19.8%	36.9%	92.1%	78.5%	13.5%	9.6%	54.2%	44.4%	6.9%	10%	66.6%	16.1%	–	–	–	Activity (Fibroblast [36]): 75.4%; IC50 (HeLa): 4.2 µM; Activity (Fibroblast [37]): 73.7%; Activity (Fibroblast [29]): 54.5%; Activity (PANC-1 [30]): 29.3%; Activity (Fibroblast [38]): 58.9%; Activity (PK9 [32]): 71.5%; Activity [33]: 92.6%
CCCCCCCC/C=C\CCCCCCCCOC[C@@H]1[C@@H](O)[C@@H](O)CN1CCCC	–	–	–	–	–	–	–	–	–	–	–	–	–	–	–	–	–	inactive	inactive	Active	–
CCCCCCCC/C=C\CCCCCCCCOC[C@@H]1[C@@H](O)[C@@H](O)CN1Cc1ccccc1	–	–	–	–	–	–	–	–	–	–	–	–	–	–	–	–	–	inactive	inactive	Active	–
CCCCCCCC/C=C\CCCCCCCCOC[C@@H]1[C@@H](O)[C@@H](O)CN1C	–	–	–	–	–	–	–	–	–	–	–	–	–	–	–	–	–	inactive	inactive	Active	–
CCCCCCCC/C=C\CCCCCCCCOC[C@@H]1[C@@H](O)[C@@H](O)CN1C(C)C	–	–	–	–	–	–	–	–	–	–	–	–	–	–	–	–	–	inactive	inactive	Active	–
Cl.O[C@H]1CN[C@H](COCCCCCCCCC/C=C/c2ccc(Oc3ccccc3)cc2)C1	20.6%	9.8%	35.1%	62.4%	88%	6.6%	49.5%	86.8%	86.1%	5.4%	11.5%	56.1%	67.1%	4.3%	10.8%	23.1%	8.9%	–	–	–	Activity (Fibroblast [36]): 87.9%; IC50 (HeLa): 3.6 µM; Activity (Fibroblast [37]): 82.1%; Activity (Fibroblast [29]): 6.5%; Activity (PANC-1 [30]): 25.3%; Activity (Fibroblast [38]): 75.1%; Activity (PK9 [32]): 27.8%; Activity [33]: 91.2%
CCCCCCCC/C=C\CCCCCCCCOC[C@@H]1[C@@H](O)[C@@H](O)CN1C(N)=O	–	–	–	–	–	–	–	–	–	–	–	–	–	–	–	–	–	inactive	inactive	Active	–
